In publication PMC1810525, “Antagonism of the prostaglandin D2 receptor CRTH2 attenuates asthma pathology in mouse eosinophilic airway inflammation” (Respiratory Research, 2007):

Legend:
[1] = system: OVA-challenged BALB/c mice; assay: Mouse model of allergic asthma (OVA), bronchoalveolar lavage eosinophils; type: in vivo; conditions: 5 mg/kg orally twice daily, 24 hr after second challenge, allergen/vehicle 1.0 ± 0.2 %
Text: Female BALB/c mice about 6 weeks of age (MoB A/S; Ry, Denmark) were kept in well-controlled animal housing facilities and fed ad libitum. The study was approved by the Regional Ethics Committee in Malmoe-Lund, Sweden. […] Sigma) at day 0 as described previously. […] Control animals received saline challenge. Animals were sacrificed 24 hr after the last allergen challenge by pentobarbital i.p followed by bronchoalveolar lavage (BAL) and lung tissue sampling. In preliminary studies it was ascertained that daily allergen challenges for only a few days sufficed to produce a significant airway tissue eosinophilia as well as goblet cell hyperplasia. On days 14 and 15 mice were treated twice daily with TM30089 and ramatroban (BAY3405), 5 mg/kg orally. […] Drugs were administered 30 minutes before and 4 hr after each challenge. The dose of ramatroban was selected in accord with previous reports. […] The total number of cells was quantified using a […] (NucleoCounter®, Chemometec A/S, Allerod, Denmark) and 5 × 10^5 cells cytocentrifuged to microscope slides. Differential cell counts were performed on May-Grünwald Giemsa stained slides and percentage of eosinophils, lymphocytes, neutrophils, and macrophages determined by counting 200–300 cells in a blinded manner. […]

[2] = system: OVA-challenged BALB/c mice; assay: Mouse model of allergic asthma (OVA), lung tissue eosinophils and mucus cells histology; type: in vivo; conditions: 5 mg/kg orally twice daily days 14 and 15, OVA-challenged mice, 24 hr after last challenge; p < 0.05 vs vehicle
Method: Female BALB/c mice about 6 weeks of age (MoB A/S; Ry, Denmark) were kept in well-controlled animal housing facilities and fed ad libitum. The study was approved by the Regional Ethics Committee in Malmoe-Lund, Sweden. All groups of mice (n = 10 in each group) were immunized by intraperitoneal (i.p) injections of ovalbumin (OVA, 10 μg per injection; grade V, Sigma, St Louis, Mo) absorbed to alum adjuvant (Al(OH)3; Sigma) at day 0 as described previously. […] Control animals received saline challenge. Animals were sacrificed 24 hr after the last allergen challenge by pentobarbital i.p followed by bronchoalveolar lavage (BAL) and lung tissue sampling. In preliminary studies it was ascertained that daily allergen challenges for only a few days sufficed to produce a significant airway tissue eosinophilia as well as goblet cell hyperplasia. On days 14 and 15 mice were treated twice daily with TM30089 and ramatroban (BAY3405), 5 mg/kg orally. […] Drugs were administered 30 minutes before and 4 hr after each challenge. The dose of ramatroban was selected in accord with previous reports. Furthermore, ramatroban and TM30089 differ chemically merely by the move of one carbon atom from the carboxyl side chain in ramatroban to the sulfonamide nitrogen in TM30089 - thus they have the same molecular weight and other important structural features in common - so it is highly reasonable to assume they will have very similar PK properties. […] Eosinophils were detected by histochemical visualization of cyanide-resistant eosinophil peroxidase (EPO) activity. In brief, 5 μm cryo sections were incubated for 8 min at room temperature in PBS buffer (pH 7.4) supplemented with 3.3-diaminobenzidine tetrahydrochloride (60 mg/100 ml; Sigma), 30% H2O2 (0.3 ml/100 ml), and NaCN (120 mg/100 ml). Slides were then rinsed in tap water and mounted in […] medium (Merck, Darmstadt, Germany). […] Although the focus in this study was on tissue pathology BAL was also carried out (see below). Histology analyses were performed and quantified in a blinded manner. To compare histological data, the non-parametric Kruskal-Wallis test and followed by Connover's test was applied using Analyze ItTM (Analyse-it software Ltd., Leeds, UK). Data are expressed as mean ± SEM. A value of p < 0.05 was considered statistically significant.

SMILES | BALF eosinophils [1] [%] | allergen challenge-induced mucus cell hyperplasia [2] | allergen challenge-induced peribronchial lung tissue eosinophilia [2]
CN(C1CCc2c(c3ccccc3n2CC(=O)O)C1)S(=O)(=O)c1ccc(F)cc1 (stereo not drawn) [TM30089] | 0.5 ± 0.01 | significantly diminished | significantly diminished
O=C(O)CCn1c2c(c3ccccc31)C[C@H](NS(=O)(=O)c1ccc(F)cc1)CC2 [ramatroban, reference compound] | 0.4 ± 0.01 | significantly diminished | significantly diminished
